Test results from BindingDB's records for doi:10.7270/Q2TX3CTT (Broad Institute, 2010).
Structures can show the parent of a compound that is named as a salt.

These compounds were tested against Glycogen synthase kinase-3 beta (Homo sapiens, UniProt P49841) (assay: GSK3beta kinase inhibitor potency, dose response, biochemical, luminescence, cell-free homogeneous, retest (AID 434954)).
Glycogen synthase kinase-3 beta, sequence (P49841 whole entry): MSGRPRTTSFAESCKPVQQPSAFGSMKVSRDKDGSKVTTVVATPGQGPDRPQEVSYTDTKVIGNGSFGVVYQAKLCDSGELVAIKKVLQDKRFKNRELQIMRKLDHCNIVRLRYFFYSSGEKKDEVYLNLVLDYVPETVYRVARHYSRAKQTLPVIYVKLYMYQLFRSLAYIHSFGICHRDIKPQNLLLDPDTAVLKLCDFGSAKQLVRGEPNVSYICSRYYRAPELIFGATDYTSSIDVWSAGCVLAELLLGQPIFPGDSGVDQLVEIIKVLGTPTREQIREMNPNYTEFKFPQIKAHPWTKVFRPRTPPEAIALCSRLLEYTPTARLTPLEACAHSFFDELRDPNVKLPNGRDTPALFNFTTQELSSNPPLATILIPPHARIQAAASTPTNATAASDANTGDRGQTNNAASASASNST

Row | SMILES | EC50 [µM]
1 | O=C(CCc1nnc(CCCCc2ccccc2)o1)NCc1cccc(F)c1 [N-(3-fluorobenzyl)-3-[5-(4-phenylbutyl)-1,3,4-oxadiazol-2-yl]propanamide] | > 300
2 | O=C1/C(=C\c2ccc(O)cc2)SC(=S)N1Cc1ccccc1 [(5E)-5-[(4-hydroxyphenyl)methylidene]-3-(phenylmethyl)-2-sulfanylidene-1,3-thiazolidin-4-one] | > 300
3 | CN1CCN(CCCNC(=O)Nc2ccc([N+](=O)[O-])cc2)CC1 [N-[3-(4-methylpiperazin-1-yl)propyl]-N'-(4-nitrophenyl)urea] | > 300
4 | O=C(NCCCN1CCCC1=O)c1c(O)n2ccsc2nc1=O [5-hydroxy-7-oxo-N-[3-(2-oxo-1-pyrrolidinyl)propyl]-6-thiazolo[3,2-a]pyrimidinecarboxamide] | > 300
5 | NS(=O)(=O)c1ccc(N=Nc2cnc(O)c(O)c2)cc1 [4-[(5,6-dioxo-3-pyridinyl)hydrazo]benzenesulfonamide] | > 300
6 | Clc1ccc2c(c1)Nc1ccccc1CC2 [3-chloro-10,11-dihydro-5H-dibenzo[b,f]azepine] | > 300
7 | COC(CNc1nc(SC)nc2sc3c(c12)CCN(C)C3)OC [MLS001215082] | > 300
8 | COc1cccc(NC(=O)CN(C2=NC3CS(=O)(=O)CC3S2)c2cccc(C)c2)c1 (stereo not given) [MLS001110132] | > 300
9 | Cc1ccc(-c2nn(-c3ccccc3)cc2CNCc2ccccc2)cc1 [MLS000672046] | > 300
10 | COC(=O)c1ccc(NC(=O)CCN2CCN(Cc3ccccc3)CC2)cc1 [4-[3-(4-Benzyl-piperazin-1-yl)-propionylamino]-benzoic acid methyl ester] | > 300
11 | COc1cccc2cc(C(=O)OCc3ccccc3)c(=O)oc12 [(phenylmethyl) 8-methoxy-2-oxidanylidene-chromene-3-carboxylate] | > 300
12 | Cc1ccc(CNc2nc(N)c([N+](=O)[O-])c(Nc3ccc(F)cc3)n2)cc1 [N4-(4-fluorophenyl)-N2-[(4-methylphenyl)methyl]-5-nitro-pyrimidine-2,4,6-triamine] | > 300
13 | COc1ccc(-c2nnc3ccc(SCC(N)=O)nn23)cc1OC [2-[[3-(3,4-dimethoxyphenyl)-[1,2,4]triazolo[4,3-b]pyridazin-6-yl]sulfanyl]ethanamide] | > 300
14 | O=C(CN1CCN(S(=O)(=O)c2ccccc2)CC1)Nc1ccc([N+](=O)[O-])cc1 [2-[4-(benzenesulfonyl)-1-piperazinyl]-N-(4-nitrophenyl)acetamide] | > 300
15 | Cc1ccccc1NC(=O)CSc1nnc2ccc(-c3ccncc3)nn12 [SMR000808359] | > 300
16 | Cc1cccc2cc3c(NC(=O)C(C)(C)C)nn(CC(C)C)c3nc12 | > 300
17 | COc1cccc(C(=O)CSc2nccn2C)c1 [1-(3-Methoxy-phenyl)-2-(1-methyl-1H-imidazol-2-ylsulfanyl)-ethanone] | > 300
18 | CCc1nn(CC(=O)NCCCc2ccccc2)c(=O)c2cc3c(OC)cccc3n12 [SMR000624506] | > 300
19 | c1ccc(-c2nc(NCc3cccnc3)c3ccccc3n2)cc1 | > 300
20 | C=CCNC(=O)c1ccc(OC)cc1OC | > 300
21 | COc1ccc(NC(=O)NC2CCCc3ccccc32)cc1 (stereo not given) [SMR000678136] | > 300

Row | SMILES | EC50 [µM]
22 | COCCN(CCOC)Cc1c(O)ccc2c1O/C(=C\c1ccco1)C2=O [SMR000544009] | > 300
23 | CCCc1cc(C(=O)Nc2cc(Br)ccc2O)no1 [MLS000116375] | > 300
24 | O=C(NCCCN1CCCCC1)c1ccc2c(c1)NC(=O)C(N1CCCCC1)S2 (stereo not given) [3-oxo-2-piperidin-1-yl-N-(3-piperidin-1-ylpropyl)-4H-1,4-benzothiazine-6-carboxamide] | > 300
25 | Cc1ccc(C(=O)Nc2ncc([N+](=O)[O-])s2)cc1 | > 300
26 | O=C(O)/C=C/C(=O)NCC1CCC(CNC(=O)/C=C/C(=O)O)CC1 (stereo not given) [(E)-4-[[4-[[[(E)-3-carboxy-1-oxoprop-2-enyl]amino]methyl]cyclohexyl]methylamino]-4-oxo-2-butenoic acid] | > 300
27 | O=[N+]([O-])c1ccccc1S(=O)(=O)N1CCc2ccccc2C1 [SMR000273931] | > 300
28 | CCC(=O)Nc1nn(CC(C)C)c2nc3ccc(C)cc3cc12 [N-[6-methyl-1-(2-methylpropyl)pyrazolo[3,4-b]quinolin-3-yl]propanamide] | > 300
29 | O=C(CCSCCc1ccccn1)Nc1cc(F)ccc1F [N-(2,5-difluorophenyl)-3-(2-pyridin-2-ylethylsulfanyl)propanamide] | > 300
30 | CNc1nc(N)nc(-c2cc(Cl)ccc2OC)n1 [6-(5-chloranyl-2-methoxy-phenyl)-N2-methyl-1,3,5-triazine-2,4-diamine] | > 300
31 | COC(=O)C1=CN(Cc2ccc(OC)c(OC)c2)C=C(C(=O)OC)C1c1ccccc1F [1-(3,4-Dimethoxy-benzyl)-4-(2-fluoro-phenyl)-1,4-dihydro-pyridine-3,5-dicarboxylic acid dimethyl ester] | > 300
32 | CC1CCCC(NC(=O)C2CCN(C(=O)Nc3ccccc3)CC2)C1C (stereo not given) [N4-(2,3-dimethylcyclohexyl)-N1-phenyl-piperidine-1,4-dicarboxamide] | > 300
33 | CCN(CC)CCNC(=O)C(=O)Nc1ccc2c(c1)N(S(=O)(=O)c1cccs1)CCC2 [N-[2-(diethylamino)ethyl]-N'-(1-thiophen-2-ylsulfonyl-3,4-dihydro-2H-quinolin-7-yl)oxamide] | > 300
34 | COc1ccc(Nc2oc(COc3ccccc3F)nc2C#N)cc1 | > 300
35 | CCOC(=O)N1CCN(S(=O)(=O)c2cc(Br)cc3c2N(C(=O)C2CC2)CC3)CC1 [ethyl 4-[(5-bromanyl-1-cyclopropylcarbonyl-2,3-dihydroindol-7-yl)sulfonyl]piperazine-1-carboxylate] | > 300
36 | COc1ccc(N(C(=O)c2ccncc2)S(=O)(=O)c2cccc([N+](=O)[O-])c2)cc1 [SMR000668685] | > 300
37 | COc1ccc2cc(C(=O)C3CCCN(C(=O)c4sc(C)nc4C)C3)ccc2c1 (stereo not given) [SMR000653741] | > 300
38 | Cc1cccc(-c2nnc(SCc3ccccc3)o2)c1 [MLS000067803] | > 300
39 | OC(c1ccccc1)c1ccncc1 (stereo not given) [phenyl(pyridin-4-yl)methanol] | > 300
40 | c1cncc(-c2nc(NCc3ccco3)c3ccccc3n2)c1 [N-(2-furanylmethyl)-2-(3-pyridinyl)-4-quinazolinamine] | > 300
41 | CCN1C(=O)N[C@@H](c2ccccc2)[C@@H](C(=O)OC)[C@H]1C [CMLD004197] | > 300

Further lines, results first:

Row | EC50 [µM] | SMILES
42 | 5.67 | CCN1CCN(c2c(C=O)c(Cl)nc3ccc(OC)cc23)CC1
43 | 11.2 | Cc1ccc(C(=O)c2coc3ccc(O)cc23)cc1 [SMR000539213]
44 | > 300 | Cc1ccc2c(c1)C1CN(C)CCC1N2C(=S)Nc1ccc(Cl)cc1Cl (stereo not given) [SMR000385491]
45 | 1.57 | Nc1nonc1-n1nnc(C(=O)NN=Cc2ccccc2Br)c1CN1CCCC1 [SMR000620637]
46 | 28 | CC1=Nc2ncnn2C(c2cccnc2)C1C(=O)OCc1ccccc1 (stereo not given) [(phenylmethyl) 5-methyl-7-pyridin-3-yl-1,7-dihydro-[1,2,4]triazolo[1,5-a]pyrimidine-6-carboxylate]
47 | > 300 | CC(=O)N1CCc2c(sc(NC(=O)C3CCCCC3)c2C(N)=O)C1 [2-(cyclohexylcarbonylamino)-6-ethanoyl-5,7-dihydro-4H-thieno[2,3-c]pyridine-3-carboxamide]
48 | > 300 | CCCCc1cc(=O)oc2cc(OS(C)(=O)=O)ccc12 [(4-butyl-2-oxidanylidene-chromen-7-yl) methanesulfonate]
49 | > 300 | CCNc1nc(N)nc(Oc2ccc(OCCOc3ccc(Cl)cc3Cl)nn2)n1 [6-[6-[2-(2,4-dichlorophenoxy)ethoxy]pyridazin-3-yl]oxy-2-N-ethyl-1,3,5-triazine-2,4-diamine]
50 | > 300 | COC(=O)C(C)Oc1cc(OC(C)C(=O)OC)c2c(-c3ccccc3)cc(=O)oc2c1 (stereo not given) [methyl 2-[5-(1-methoxy-1-oxopropan-2-yl)oxy-2-oxo-4-phenylchromen-7-yl]oxypropanoate]
51 | > 300 | CCn1c(SCC(=O)NNC(=O)c2ccc(C)cc2)nnc1C1CC1 [N'-[2-[(5-cyclopropyl-4-ethyl-1,2,4-triazol-3-yl)sulfanyl]acetyl]-4-methylbenzohydrazide]
52 | > 300 | CCOc1ccc2c(c1)C(NC(C)=O)C(=O)N2CCN1CCOCC1 (stereo not given) [N-[5-ethoxy-1-(2-morpholin-4-ylethyl)-2-oxo-3H-indol-3-yl]acetamide;hydrochloride]
53 | 14.7 | COc1ccc2occ(C(=O)c3ccc(N)cc3)c2c1 [SMR000539215]
54 | 14.5 | Cc1ccc(CSc2nnc(-c3ccncc3)o2)c(C)c1 [SMR000280552]
55 | 13.2 | COc1ccc(C(=O)c2coc3ccc(O)cc23)cc1 [MLS001198628]
56 | 4.4 | CC1=NC(=O)NC(c2ccccc2OC(F)F)C1C(=O)OCc1ccccc1 (stereo not given)
57 | 24.7 | CCN1/C(=C/C(C)=C/c2sc3ccccc3[n+]2CC)Sc2ccccc21 [SMR000354813]
58 | 4.3 | O=C(Cc1ccc(Br)cc1)Nc1ncc([N+](=O)[O-])s1 [SMR000429978]
59 | 14.7 | CCC(C)Nc1nc(N)c([N+](=O)[O-])c(NCCO)n1 (stereo not given) [MLS000332774]
60 | 23.3 | COc1cc(C=C2SC(Nc3ccc(O)cc3)=NC2=O)ccc1O [MLS000778276]
61 | 15.1 | O=C1Nc2cc(C(=O)NCCCN3CCOCC3)ccc2S/C1=C/c1cccc(Cl)c1 [(2E)-2-[(3-chlorophenyl)methylidene]-N-(3-morpholin-4-ylpropyl)-3-oxidanylidene-4H-1,4-benzothiazine-6-carboxamide]
62 | 14.9 | Cc1ccc(C(=O)ON=C(N)c2ccccn2)c(C)c1
63 | 10.7 | Nc1nc(NCCOCCO)nc(Nc2cccc(F)c2)c1[N+](=O)[O-] [2-[2-[[4-azanyl-6-[(3-fluorophenyl)amino]-5-nitro-pyrimidin-2-yl]amino]ethoxy]ethanol]
64 | 9.26 | Cc1ccc(C2c3c(n[nH]c3C)N=C3CC(C)(C)CC(=O)C32)cc1 (stereo not given) [3,7,7-trimethyl-4-(4-methylphenyl)-2,4,6,8-tetrahydro-1H-pyrazolo[3,4-b]quinolin-5-one]
65 | 58.7 | O=NCc1cn(-c2ccccc2)nc1-c1ccc2c(c1)OCCO2 [N-[[3-(2,3-dihydro-1,4-benzodioxin-6-yl)-1-phenylpyrazol-4-yl]methylidene]hydroxylamine]
